BindingDB's records for doi:10.7270/Q23B5XSC (Nmmlsc, 2012)

Each compound was assayed against C-C chemokine receptor type 5 (Homo sapiens, UniProt P51681).
C-C chemokine receptor type 5, sequence (P51681 whole entry): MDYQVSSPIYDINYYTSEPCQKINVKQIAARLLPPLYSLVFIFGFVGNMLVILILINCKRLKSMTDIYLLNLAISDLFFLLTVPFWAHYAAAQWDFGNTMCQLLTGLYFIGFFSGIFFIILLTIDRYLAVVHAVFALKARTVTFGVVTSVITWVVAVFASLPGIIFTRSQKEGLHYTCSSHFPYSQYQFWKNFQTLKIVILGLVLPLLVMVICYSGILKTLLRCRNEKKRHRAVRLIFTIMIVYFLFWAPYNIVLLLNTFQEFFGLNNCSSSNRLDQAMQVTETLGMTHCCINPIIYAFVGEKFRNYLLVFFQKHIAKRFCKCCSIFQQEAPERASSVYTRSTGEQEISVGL
CN(CC(=O)N1CCN(c2ccccn2)CC1)S(=O)(=O)c1ccc(Cl)cc1 was tested, and the EC50 was 7.46 nM. For CC(=O)Nc1ccc(S(=O)(=O)NCCc2csc(-c3cccnc3)n2)cc1, the EC50 was 19.6 nM. CCOC(=O)c1ccc(NC(=O)Cn2nnc(-c3ccccc3)n2)cc1 [SMR000021419] was tested, and the EC50 was 123 nM. Compound CCOC(=O)c1ccc(NC(=O)COc2ccc(S(=O)(=O)N3CCCC3)cc2)cc1 [SMR000124597] has an EC50 of 188 nM.
